The text below walks through data of PMC11370232, “Repurposing of a library for high-content screening of inhibitors against Echinococcus granulosus” (Parasites & Vectors, 2024).

pEC50, pIC50, pKi: −log10 of the molar value. Structures can show the parent of a compound that is named as a salt.

The test system of data set [1] is lab-cultured E. granulosus microcysts (< 1 mm). The data set can be described thus: In vitro microcyst viability assay. Particulars: 10 μM, 4 days. Type of data set: cell-based, Echinococcus granulosus. As to the method:
The in vitro E. granulosus culture progression was divided into two stages: an early stage in which the PSC culture was established by digesting echinococcal cysts isolated from naturally infected sheep livers, followed by a late stage with differentiation into cysts. CSCs were cultured from PSCs according to our previously described method. Briefly, the PSCs were incubated at 37 °C in glass culture vessels in RPMI 1640 medium (Invitrogen, San Diego, CA) containing 20% (v/v) FCS (Invitrogen), 0.45% (w/v) yeast extract, 0.4% (w/v) glucose, 100 IU/mL penicillin, and 100 μg/mL streptomycin placed on a solid-phase base prepared by heating newborn calf serum at 75 °C for 45 min (Smyth, 1990). Approximately 100 PSCs/mL were cultured, and the liquid medium was replaced every 3 days. After 56 days of cultivation, about 10% of the PSCs had developed into cysts with a thin laminated layer. The external diameter of the cysts was 328.6 ± 48 μm, and they appeared to the naked eye as clear capsular cysts. The cysts were carefully aspirated from the culture flasks and separated from dead or undeveloped PSCs by Pasteur pipetting. CSCs included microcysts and cysts: the diameter of the microcysts ranged from 300 μm to 1 mm, and the diameters of the cysts were greater than 1 mm.
CSCs were cultured from PSCs utilizing the method described in a previous section. The in vitro cultured cysts (10 ± 5/well) or microcysts (10 ± 5/well) were seeded in 96-well plates before adding drugs. For the cyst/microcyst viability assay, cysts or microcysts were cultured in one well of a 96-well plate. After 1 day of culture, drugs were added to each well at a final concentration of 10 μM. For the cyst viability assay, the cyst survival rate was determined every 24 h after incubation with drugs, while for the microcyst viability assay, the survival rate of microcysts was determined at 4 days after drug incubation. The following equation was used for the death rate: death rate of CSCs (%) = 100 × (number of dead CSCs/number of total CSCs).

In data set [2] the test system is lab-cultured E. granulosus cysts (> 1 mm). In words: In vitro cyst viability assay. Particulars: Echinococcus granulosus, 72 h; 10 μM, day 3 post-treatment; read-out: inhibitory rate against the cysts. Format: cell-based, Echinococcus granulosus.
Data set [3] has as its target opioid receptor-like1 (ORL1) receptor. Also on record: method as in SelleckChem library description. The following applies: ref SelleckChem library description; cited from earlier work.
A further data set can be described thus: Cytotoxicity in HepG2. The following applies: human, HepG2 cells.
A further data set concerns CDK1, 2, 4, 6 and 9. Also on record: method as in SelleckChem library description. Particulars: read-out: IC50, CDK1, 2, 4, 6 and 9; cell-free assays; ref SelleckChem library description; cited from earlier work.
The test system of the next data set is PI3Kγ. Details: method as in SelleckChem library description. Particulars: ref SelleckChem library description; cited from earlier work.
The test system of a further data set is PI3Kβ. Also on record: method as in SelleckChem library description. The following applies: ref SelleckChem library description; cited from earlier work.
The test system of the next data set is PI3Kα. Also on record: method as in SelleckChem library description. The following applies: ref SelleckChem library description; cited from earlier work.
In a further data set the test system is Pim3. Also on record: method as in SelleckChem library description. Particulars: ref SelleckChem library description; cited from earlier work.
Another data set concerns Pim2. Details: method as in SelleckChem library description. Particulars: ref SelleckChem library description; cited from earlier work.
Another data set concerns Pim1. Details: method as in SelleckChem library description. The following applies: ref SelleckChem library description; cited from earlier work.
Another data set concerns EGFR(E746_A750). Details: method as in SelleckChem library description. Particulars: ref SelleckChem library description; cited from earlier work.
In the next data set the test system is EGFR(L858R). Particulars: ref SelleckChem library description; cited from earlier work.
The next data set concerns HER2. Also on record: method as in SelleckChem library description. The following applies: ref SelleckChem library description; cited from earlier work.
The next data set concerns the target DNA synthesis. Details: method as in SelleckChem library description. Particulars: cell-free assay; ref SelleckChem library description; cited from earlier work.
The subject of the next data set is Akt1. Also on record: method as in SelleckChem library description. The following applies: ref SelleckChem library description; cited from earlier work.
The next data set relates to Akt2. Also on record: method as in SelleckChem library description. Particulars: ref SelleckChem library description; cited from earlier work.
The test system of a further data set is ROCKI. Details: method as in SelleckChem library description. The following applies: ref SelleckChem library description; cited from earlier work.
The subject of the next data set is PKA. Details: method as in SelleckChem library description. Particulars: ref SelleckChem library description; cited from earlier work.
For a further data set, the system named is p70S6K. Details: method as in SelleckChem library description. The following applies: ref SelleckChem library description; cited from earlier work.
The subject of the next data set is ROCKII. Details: method as in SelleckChem library description. The following applies: ref SelleckChem library description; cited from earlier work.
In another data set the test system is Akt3. Details: method as in SelleckChem library description. Particulars: ref SelleckChem library description; cited from earlier work.
In data set [4] the test system is Rac1 in MDA-MB-435 and MDA-MB-231 cells. Details: method as in SelleckChem library description. The following applies: ref SelleckChem library description; cited from earlier work.
Another data set addresses glucokinase (GK). Details: method as in SelleckChem library description. The following applies: ref SelleckChem library description; read-out: EC50, glucokinase activation; cited from earlier work.
The next data set deals with Bcl-2. Details: method as in SelleckChem library description. The following applies: cell-free assay; ref SelleckChem library description; cited from earlier work.
Another data set relates to EGFR. Details: method as in SelleckChem library description. The following applies: ref SelleckChem library description; cited from earlier work.
Another data set relates to PDGFR. Details: method as in SelleckChem library description. Particulars: ref SelleckChem library description; cited from earlier work.

As for `CCc1ccc(OCc2ccccc2C(=O)Nc2ccc3nc(C)cc(N)c3c2)cc1` [JTC-801], the “effect on microcyst viability” value in data set [1] was “did not exert a significant inhibitory effect”. Further, in data set [2], the inhibition at 10 µM came to 100%. Further, the negative logarithm of the IC50 (pIC50) in [3] is 7.03. The same molecule showed a CC50 in “Cytotoxicity in HepG2” of 7430 nM.

For `O=C(NC1CCNCC1)c1[nH]ncc1NC(=O)c1c(Cl)cccc1Cl` [AT7519 HCl], the pIC50 in the data set with CDK1, 2, 4, 6 and 9 is […].

Regarding `COc1ccc(-c2ccc3ncc4c(c3c2)n(-c2ccc(N3CCNCC3)c(C(F)(F)F)c2)c(=O)n4C)cn1` [BGT226 (NVP-BGT226), BGT226], the results for the pIC50 with PI3Kγ, in the data set on PI3Kβ and in the data set with PI3Kα were 7.42, 7.20 and 8.40, respectively.

With `CN1CCCN(C(=O)c2cccc(-c3ccc(/C=C4/C(=O)Nc5ccc(Cl)cc54)o3)c2)CC1` [CX-6258 HCl], the figures for the pIC50 with Pim3, with Pim2 and with Pim1 were 7.80, 7.60 and […], respectively.

For `C=CC(=O)Nc1cccc(Oc2nc(Nc3ccc(N4CCN(C)CC4)cc3)ncc2Cl)c1` [WZ3146], the pIC50 in the data set on EGFR(E746_A750) and in the data set on EGFR(L858R) was 8.70 in each case.

With `CN(C)C/C=C/C(=O)Nc1cc2c(Nc3ccc(F)c(Cl)c3)ncnc2cc1O[C@H]1CCOC1` [Afatinib (BIBW2992) Dimaleate], the pIC50 with HER2 is 7.85.

Turning to `COc1cccc2c1C(=O)c1c(O)c3c(c(O)c1C2=O)C[C@@](O)(C(C)=O)C[C@@H]3O[C@H]1C[C@H](N)[C@H](O)[C@H](C)O1` [Daunorubicin HCl], the pKi on DNA synthesis is 7.70.

Take `NC[C@@](O)(c1ccc(Cl)cc1)c1ccc(-c2cn[nH]c2)cc1` [AT13148]: the pIC50 with Akt1 was 7.42; in the data set on Akt2, 6.40; in the data set with ROCKI, 8.22; in the data set with PKA, 8.52; in the data set on p70S6K, 8.10; in the data set on ROCKII, 8.40. In the data set on Akt3, the pIC50 was 7.30.

Turning to `CCn1c2ccccc2c2cc(Nc3ccnc(NCCCN4CCOCC4)n3)ccc21` [EHop-016], the pIC50 in [4] was 5.96.

As for `O=C(Nc1ncc(SCCN2CCCC2)s1)[C@]1(c2ccc(S(=O)(=O)C3CC3)cc2)C[C@H]1C1CCCCC1` [LY2608204], at glucokinase (GK), the pEC50 is 7.38.

Turning to `COC1=CC(c2cc3ccccc3[nH]2)=N/C1=C\c1[nH]c(C)cc1C` [Obatoclax Mesylate (GX15-070), Obatoclax Mesylate], at Bcl-2, the pKi is 6.66.

Turning to `CC(C)(C)c1cc(C=C(C#N)C#N)cc(C(C)(C)C)c1O` [Tyrphostin 9], the pIC50 with EGFR was 3.34; in the data set with PDGFR, 6.30.

The pIC50 is −log10 of the IC50, conventionally taken in molar units. For orientation: CC50 means the concentration giving 50% cytotoxicity. The low end stands for harm at low concentration, the high end for better tolerance by the cells. In general, pKi refers to the negative decadic logarithm of the Ki, by convention in mol/L. As usually defined, the pEC50 is the EC50 on a negative log10 scale, so that one unit is a factor of ten.
